The test has as its target c-kit WT (Homo sapiens (Human), UniProt P10721). Briefly: Proliferation assay (CellTiter-Blue) on BaF3 Kit WT cell line. The format is cell-based. As to conditions: BaF3 Kit WT cell line (murine Ba/F3 expressing Human Kit WT, with murine SCF), 48 hours. The procedure:
Procedures of C-Kit WT Inhibition Assays:
Colorimetric cell proliferation and viability assay (reagent CellTiter-Blue purchased from Promega cat N°G8081) was performed on BaF3 Kit WT cell line.
A total of 2.10^4 cells/50 μl were seeded per well of a 96-wells plate. Treatment was initiated by addition of a 2× drug solution of ½ serial dilutions ranging from 0 to 10 μM. After incubating for 48 hours at 37° C., 10 μl of a ½ dilution of CellTiter-Blue reagent was added to each well and the plates were returned to the incubator for an additional 4 hours. The fluorescence intensity from the CellTiter-Blue reagent is proportional to the number of viable cells and data were recorded (544Ex/590Em) using a POLARstar OMEGA microplate reader (BMG LabteckSarl). A background control without cells was used as a blank. The positive control of the assay corresponds to the cell proliferation obtained in the absence of drug treatment (100% proliferation). Each sample was done in triplicate. The results were expressed as a percentage of the proliferation obtained in absence of treatment. All drugs were prepared as 20 mM stock solutions in DMSO and conserved at −80° C. Drug dilutions were made fresh in medium before each experiment. A DMSO control was included in each experiment.
The cell line expressing Human Kit WT was derived from the murine IL3-dependent Ba/F3 proB lymphoid cells. Ba/F3 Kit WT cells were maintained in RPMI medium containing 10% FCS and supplemented with 250 ng/ml of recombinant murine SCF.
c-kit WT, sequence (P10721 26-976): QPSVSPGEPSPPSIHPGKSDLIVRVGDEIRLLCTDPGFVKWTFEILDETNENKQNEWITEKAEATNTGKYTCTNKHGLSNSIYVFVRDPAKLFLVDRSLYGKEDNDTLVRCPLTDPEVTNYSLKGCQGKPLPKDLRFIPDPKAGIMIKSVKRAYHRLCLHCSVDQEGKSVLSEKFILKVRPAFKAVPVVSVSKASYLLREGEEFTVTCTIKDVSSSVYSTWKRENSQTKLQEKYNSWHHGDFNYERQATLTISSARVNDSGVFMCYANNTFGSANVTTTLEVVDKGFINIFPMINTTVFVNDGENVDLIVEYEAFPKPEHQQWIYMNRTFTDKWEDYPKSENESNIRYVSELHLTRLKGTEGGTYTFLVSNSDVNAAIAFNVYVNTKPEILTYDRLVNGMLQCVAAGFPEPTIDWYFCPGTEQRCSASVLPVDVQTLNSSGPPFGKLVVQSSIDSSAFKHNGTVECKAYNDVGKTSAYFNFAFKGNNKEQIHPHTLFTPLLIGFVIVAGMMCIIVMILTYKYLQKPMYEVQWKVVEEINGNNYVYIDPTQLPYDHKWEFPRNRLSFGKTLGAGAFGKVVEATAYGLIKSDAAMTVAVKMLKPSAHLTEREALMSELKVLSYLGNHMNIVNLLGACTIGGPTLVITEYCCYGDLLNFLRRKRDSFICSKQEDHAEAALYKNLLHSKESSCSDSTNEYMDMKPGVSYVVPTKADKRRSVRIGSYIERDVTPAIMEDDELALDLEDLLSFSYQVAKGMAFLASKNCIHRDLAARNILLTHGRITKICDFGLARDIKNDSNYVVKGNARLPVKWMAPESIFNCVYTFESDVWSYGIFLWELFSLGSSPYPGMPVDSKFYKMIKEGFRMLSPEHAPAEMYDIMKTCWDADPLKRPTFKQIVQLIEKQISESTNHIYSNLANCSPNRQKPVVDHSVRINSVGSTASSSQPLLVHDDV
One may read the IC50 as the concentration at which inhibition is half-maximal. Low values mean greater potency, high ones weaker potency. With `Cc1cc2nc(-c3cccc(OC(F)(F)F)c3)[nH]c2cc1Nc1nc(-c2cncnc2)cs1` [Compound 063, [6-Methyl-2-(3-trifluoromethoxy-phenyl)-3H-benzoimidazol-5-yl]-(4-pyrimidin-5-yl-thiazol-2-yl)-amine], the IC50 was in the range of 1000 to 10000 nM.
For `Cn1c(-c2cccc(OC(F)(F)F)c2)nc2cc(Nc3nc(-c4cccnc4)cs3)ccc21` [Compound 092, [1-Methyl-2-(3-trifluoromethoxy-phenyl)-1H-benzoimidazol-5-yl]-(4-pyridin-3-yl-thiazol-2-yl)-amine] the value was 1000 to 10000 nM; for `FC(F)(F)c1cccc(-c2nc3cc(Nc4nc(-c5cccnc5)cs4)ccc3[nH]2)c1` [Compound 088, (4-Pyridin-3-yl-thiazol-2-yl)-[2-(3-trifluoromethyl-phenyl)-1H-benzoimidazol-5-yl]-amine], 1000 to 10000 nM; for `Cc1cc2nc(-c3cccc(OC(F)(F)F)c3)n(C)c2cc1Nc1nc(-c2cccnc2)cs1` [Compound 117, [3,6-Dimethyl-2-(3-trifluoromethoxy-phenyl)-3H-benzoimidazol-5-yl]-(4-pyridin-3-yl-thiazol-2-yl)-amine], 1000 to 10000 nM.
Under `Cc1cccc(-c2nc3cc(C)c(Nc4nc(-c5cccnc5)cs4)cc3[nH]2)c1` [Compound 011, (6-Methyl-2-m-tolyl-3H-benzoimidazol-5-yl)-(4-pyridin-3-yl-thiazol-2-yl)-amine] stands ≤ 1000 nM; under `CCn1c(-c2cccc(OC(F)(F)F)c2)nc2cc(Nc3nc(-c4cccnc4)cs3)c(C)cc21` [Compound 115, [1-Ethyl-6-methyl-2-(3-trifluoromethoxy-phenyl)-1H-benzoimidazol-5-yl]-(4-pyridin-3-yl-thiazol-2-yl)-amine], ≤ 1000 nM.
Under `Cc1cc2nc(-c3cccc(C(F)F)c3)[nH]c2cc1Nc1nc(-c2cncnc2)cs1` [Compound 061, [2-(3-Difluoromethyl-phenyl)-6-methyl-3H-benzoimidazol-5-yl]-(4-pyrimidin-5-yl-thiazol-2-yl)-amine] stands ≤ 1000 nM.
For `CCn1c(-c2cccc(C)c2)nc2cc(Nc3nc(-c4ccncc4)cs3)c(C)cc21` [Compound 104, (1-Ethyl-6-methyl-2-m-tolyl-1H-benzoimidazol-5-yl)-(4-pyridin-4-yl-thiazol-2-yl)-amine], the IC50 was ≤ 1000 nM.
Under `Cc1cc2c(cc1Nc1nc(-c3ccncc3)cs1)nc(-c1cccc(C(F)F)c1)n2C` [Compound 081, [2-(3-Difluoromethyl-phenyl)-1,6-dimethyl-1H-benzoimidazol-5-yl]-(4-pyridin-4-yl-thiazol-2-yl)-amine] stands ≤ 1000 nM.
Regarding `Cc1cc2nc(-c3cc(CN4CCN(C)CC4)cc(-c4cnco4)c3)[nH]c2cc1Nc1nccc(-c2cccnc2)n1` [Compound 039, {6-Methyl-2-[3-(4-methyl-piperazin-1-ylmethyl)-5-oxazol-5-yl-phenyl]-3H-benzoimidazol-5-yl}-(4-pyridin-3-yl-pyrimidin-2-yl)-amine], the IC50 is 1000 to 10000 nM.
Consider `Cc1cc2c(cc1Nc1nc(-c3cccnc3)cs1)nc(-c1cccc(C(F)F)c1)n2C` [Compound 084, [2-(3-Difluoromethyl-phenyl)-1,6-dimethyl-1H-benzoimidazol-5-yl]-(4-pyridin-3-yl-thiazol-2-yl)-amine], for which the IC50 was ≤ 1000 nM.
`COc1ccc(-c2nc3cc(C)c(Nc4nc(-c5cccnc5)cs4)cc3[nH]2)cc1` [Compound 002, [2-(4-Methoxy-phenyl)-6-methyl-3H-benzoimidazol-5-yl]-(4-pyridin-3-yl-thiazol-2-yl)-amine]: the 50% inhibitory concentration (IC50) is 1000 to 10000 nM.
For `Cc1cccc(-c2nc3cc(C)c(Nc4nc(-c5cccnc5)cs4)cc3n2C)c1` [Compound 118, (3,6-Dimethyl-2-m-tolyl-3H-benzoimidazol-5-yl)-(4-pyridin-3-yl-thiazol-2-yl)-amine] the value was 1000 to 10000 nM.
`Cc1cc2nc(-c3cc(CN4CCCC4)cc(C(F)(F)F)c3)[nH]c2cc1Nc1nc(-c2cccnc2)cs1` [Compound 023, [6-Methyl-2-(3-pyrrolidin-1-ylmethyl-5-trifluoromethyl-phenyl)-3H-benzoimidazol-5-yl]-(4-pyridin-3-yl-thiazol-2-yl)-amine]: the IC50 lay within 1000 to 10000 nM.
For `Cc1cc2nc(-c3cccc(C#N)c3)[nH]c2cc1Nc1nccc(-c2cccnc2)n1` [Compound 013, 3-[5-Methyl-6-(4-pyridin-3-yl-pyrimidin-2-ylamino)-1H-benzoimidazol-2-yl]-benzonitrile] the value was 1000 to 10000 nM.
Under `Cc1cc2c(cc1Nc1nc(-c3cccnc3)cs1)nc(-c1cccc(N3CCN(C)CC3)c1)n2C` [Compound 095, {1,6-Dimethyl-2-[3-(4-methyl-piperazin-1-yl)-phenyl]-1H-benzoimidazol-5-yl}-(4-pyridin-3-yl-thiazol-2-yl)-amine] stands 1000 to 10000 nM.
For `Cc1cc2nc(-c3cccnc3)[nH]c2cc1Nc1nccc(-c2cccnc2)n1` [Compound 014, (6-Methyl-2-pyridin-3-yl-3H-benzoimidazol-5-yl)-(4-pyridin-3-yl-pyrimidin-2-yl)-amine] the value was 1000 to 10000 nM.
Turning to `Cc1cc2nc(-c3cccc(F)c3)[nH]c2cc1Nc1nccc(-c2cccnc2)n1` [Compound 019, [2-(3-Fluoro-phenyl)-6-methyl-3H-benzoimidazol-5-yl]-(4-pyridin-3-yl-pyrimidin-2-yl)-amine], the IC50 lay within 1000 to 10000 nM.
`Cc1cc2nc(-c3ccc(Cl)cc3)[nH]c2cc1Nc1nc(-c2cccnc2)cs1` [Compound 059, [2-(4-Chloro-phenyl)-6-methyl-1H-benzoimidazol-5-yl]-(4-pyridin-3-yl-thiazol-2-yl)-amine] registered an IC50 of 1000 to 10000 nM.
Under `Cc1cc2[nH]c(-c3cccc(C(C)(C)C)c3)nc2cc1Nc1nc(-c2ccc(C#N)cc2)cs1` [Compound 154, 4-{2-[2-(3-tert-Butyl-phenyl)-6-methyl-1H-benzoimidazol-5-ylamino]-thiazol-4-yl}-benzonitrile] stands ≤ 1000 nM; under `Cc1cc2nc(-c3ccc(C(F)(F)F)cc3)[nH]c2cc1Nc1nc(-c2ccncc2)cs1` [Compound 050, [6-Methyl-2-(4-trifluoromethyl-phenyl)-3H-benzoimidazol-5-yl]-(4-pyridin-4-yl-thiazol-2-yl)-amine], ≤ 1000 nM; under `Cc1cc2[nH]c(-c3cccc(C(C)C)c3)nc2cc1Nc1nc(-c2ccncc2)cs1` [Compound 150, [2-(3-Isopropyl-phenyl)-6-methyl-1H-benzoimidazol-5-yl]-(4-pyridin-4-yl-thiazol-2-yl)-amine], ≤ 1000 nM.
As for `Cc1cc2[nH]c(-c3cccc(C(C)C)c3)nc2cc1Nc1nc(-c2cccnc2)cs1` [Compound 136, [2-(3-Isopropyl-phenyl)-6-methyl-1H-benzoimidazol-5-yl]-(4-pyridin-3-yl-thiazol-2-yl)-amine], the concentration for half-maximal inhibition (IC50) was ≤ 1000 nM.
Under `CCn1c(-c2cccc(C(F)F)c2)nc2cc(Nc3nc(-c4ccncc4)cs3)c(C)cc21` [Compound 103] stands ≤ 1000 nM; under `Cc1cc2nc(-c3cccc(C(F)(F)F)c3)n(C)c2cc1Nc1nc(-c2cccnc2)cs1` [Compound 116, [3,6-Dimethyl-2-(3-trifluoromethyl-phenyl)-3H-benzoimidazol-5-yl]-(4-pyridin-3-yl-thiazol-2-yl)-amine], 1000 to 10000 nM; under `Cc1cc2nc(-c3ccc(C)c(C(F)(F)F)c3)[nH]c2cc1Nc1nccc(-c2cccnc2)n1` [Compound 041, [6-Methyl-2-(4-methyl-3-trifluoromethyl-phenyl)-3H-benzoimidazol-5-yl]-(4-pyridin-3-yl-pyrimidin-2-yl)-amine], ≤ 1000 nM.
`Cc1cc2nc(-c3cccc(Cl)c3)[nH]c2cc1Nc1nc(-c2cncnc2)cs1` [Compound 068, [2-(3-Chloro-phenyl)-6-methyl-1H-benzoimidazol-5-yl]-(4-pyrimidin-5-yl-thiazol-2-yl)-amine] returned an IC50 of 1000 to 10000 nM.
For `Cc1cccc(-c2nc3cc(Nc4nc(-c5ccnc(Cl)c5)cs4)c(C)cc3[nH]2)c1` [Compound 107, [4-(2-Chloro-pyridin-4-yl)-thiazol-2-yl]-(6-methyl-2-m-tolyl-1H-benzoimidazol-5-yl)-amine] the value was ≤ 1000 nM; for `COc1cccc(-c2nc3cc(Nc4nc(-c5ccc(C#N)cc5)cs4)c(C)cc3[nH]2)c1` [Compound 128, 4-{2-[2-(3-Methoxy-phenyl)-6-methyl-1H-benzoimidazol-5-ylamino]-thiazol-4-yl}-benzonitrile], ≤ 1000 nM.
As for `Cc1cc2c(cc1Nc1nc(-c3ccncc3)cs1)nc(-c1cccc(C(F)F)c1)n2C(C)C` [Compound 100, [2-(3-Difluoromethyl-phenyl)-1-isopropyl-6-methyl-1H-benzoimidazol-5-yl]-(4-pyridin-4-yl-thiazol-2-yl)-amine], the IC50 is ≤ 1000 nM.
For the compound `Cc1cc2c(cc1Nc1nc(-c3cccnc3)cs1)nc(-c1cc(F)cc(C(F)(F)F)c1)n2C` [Compound 148, [2-(3-Fluoro-5-trifluoromethyl-phenyl)-1,6-dimethyl-1H-benzoimidazol-5-yl]-(4-pyridin-3-yl-thiazol-2-yl)-amine], the IC50 is ≤ 1000 nM.
`Cc1cc2nc(-c3cccc(C(F)(F)F)c3)[nH]c2cc1Nc1ncc(-c2ccncc2)o1` [Compound 053, [6-Methyl-2-(3-trifluoromethyl-phenyl)-3H-benzoimidazol-5-yl]-(5-pyridin-4-yl-oxazol-2-yl)-amine]: the IC50 was 1000 to 10000 nM.

For the origin of these results see patent US10202370B2, “Benzimidazole derivatives as selective proteine kinase inhibitors” (AB SCIENCE, priority 2013, dated 2019).
